Tests used:
[1] = test system: hepatocellular carcinoma cell line (Hep3B 2.1-7); experiment: Tumor cell proliferation inhibition (CTG, 72 h); assay type: cell-based; details: Homo sapiens; Hep3B 2.1-7 cells, class; read-out: Hep3B 2.1-7 range of activity (IC50)
[2] = test system: bladder cancer cell line (RT112/84); experiment: Tumor cell proliferation inhibition (CTG, 72 h); assay type: cell-based; details: Homo sapiens; RT112/84 cells, class; read-out: RT112/84 range of activity (IC50)
[3] = test system: thyroid cancer cell line (TT); experiment: Tumor cell proliferation inhibition (CTG, 72 h); assay type: cell-based; details: Homo sapiens; TT cells, class; read-out: TT range of activity (IC50)
[4] = test system: cervical cancer cell line (Hela); experiment: Tumor cell proliferation inhibition (CTG, 72 h); assay type: cell-based; details: Homo sapiens; Hela cells, class; read-out: Hela activity effect range (IC50)
[5] = test system: leukemia cell line (K562); experiment: Tumor cell proliferation inhibition (CTG, 72 h); assay type: cell-based; details: Homo sapiens; K562 cells, class; read-out: K562 activity effect range (IC50)
VEGFR-2 (KDR) = VEGFR-2 (KDR) (Homo sapiens (Human), UniProt P35968); experiment: Kinase inhibition, Mobility-Shift Assay; assay type: biochemical; details: class; read-out: KDR activity effect range (IC50)
FGFR2 = FGFR2 (Homo sapiens (Human), UniProt P21802); experiment: Kinase inhibition, Mobility-Shift Assay; assay type: biochemical; details: class; read-out: FGFR2 range of activity effects (IC50)
FGFR4 = FGFR4 (Homo sapiens (Human), UniProt P22455); experiment: Kinase inhibition, Mobility-Shift Assay; assay type: biochemical; details: class; read-out: FGFR4 range of activity effects (IC50)
EGFR = EGFR (Homo sapiens (Human), UniProt P00533); experiment: Kinase inhibition, Mobility-Shift Assay; assay type: biochemical; details: class; read-out: EGFR range of activity (IC50)
C-MET = C-MET (Homo sapiens (Human), UniProt P08581); experiment: Kinase inhibition, Mobility-Shift Assay; assay type: biochemical; details: class; read-out: C-MET range of activity (IC50)

FGFR4, sequence (P22455 22-802): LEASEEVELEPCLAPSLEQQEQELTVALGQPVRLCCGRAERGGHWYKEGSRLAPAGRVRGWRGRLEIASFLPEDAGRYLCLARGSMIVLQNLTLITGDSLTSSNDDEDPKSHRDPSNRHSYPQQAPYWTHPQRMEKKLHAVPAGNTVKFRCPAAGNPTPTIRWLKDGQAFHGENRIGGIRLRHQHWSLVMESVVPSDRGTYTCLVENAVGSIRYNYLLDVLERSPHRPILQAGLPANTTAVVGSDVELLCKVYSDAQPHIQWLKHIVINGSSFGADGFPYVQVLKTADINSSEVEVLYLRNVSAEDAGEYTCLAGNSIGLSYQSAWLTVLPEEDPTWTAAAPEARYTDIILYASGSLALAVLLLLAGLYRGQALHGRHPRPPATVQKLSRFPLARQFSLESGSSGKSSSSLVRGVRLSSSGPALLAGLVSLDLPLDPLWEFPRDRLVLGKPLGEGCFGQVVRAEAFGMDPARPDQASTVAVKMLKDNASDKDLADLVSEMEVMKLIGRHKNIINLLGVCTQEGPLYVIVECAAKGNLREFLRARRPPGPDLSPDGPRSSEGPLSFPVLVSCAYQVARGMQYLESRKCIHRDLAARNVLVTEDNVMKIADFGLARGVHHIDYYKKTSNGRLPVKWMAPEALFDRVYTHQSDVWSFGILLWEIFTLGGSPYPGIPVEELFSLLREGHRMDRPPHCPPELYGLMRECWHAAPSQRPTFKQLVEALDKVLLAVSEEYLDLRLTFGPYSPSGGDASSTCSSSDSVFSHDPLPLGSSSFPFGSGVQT
VEGFR-2 (KDR), sequence (P35968 20-1356): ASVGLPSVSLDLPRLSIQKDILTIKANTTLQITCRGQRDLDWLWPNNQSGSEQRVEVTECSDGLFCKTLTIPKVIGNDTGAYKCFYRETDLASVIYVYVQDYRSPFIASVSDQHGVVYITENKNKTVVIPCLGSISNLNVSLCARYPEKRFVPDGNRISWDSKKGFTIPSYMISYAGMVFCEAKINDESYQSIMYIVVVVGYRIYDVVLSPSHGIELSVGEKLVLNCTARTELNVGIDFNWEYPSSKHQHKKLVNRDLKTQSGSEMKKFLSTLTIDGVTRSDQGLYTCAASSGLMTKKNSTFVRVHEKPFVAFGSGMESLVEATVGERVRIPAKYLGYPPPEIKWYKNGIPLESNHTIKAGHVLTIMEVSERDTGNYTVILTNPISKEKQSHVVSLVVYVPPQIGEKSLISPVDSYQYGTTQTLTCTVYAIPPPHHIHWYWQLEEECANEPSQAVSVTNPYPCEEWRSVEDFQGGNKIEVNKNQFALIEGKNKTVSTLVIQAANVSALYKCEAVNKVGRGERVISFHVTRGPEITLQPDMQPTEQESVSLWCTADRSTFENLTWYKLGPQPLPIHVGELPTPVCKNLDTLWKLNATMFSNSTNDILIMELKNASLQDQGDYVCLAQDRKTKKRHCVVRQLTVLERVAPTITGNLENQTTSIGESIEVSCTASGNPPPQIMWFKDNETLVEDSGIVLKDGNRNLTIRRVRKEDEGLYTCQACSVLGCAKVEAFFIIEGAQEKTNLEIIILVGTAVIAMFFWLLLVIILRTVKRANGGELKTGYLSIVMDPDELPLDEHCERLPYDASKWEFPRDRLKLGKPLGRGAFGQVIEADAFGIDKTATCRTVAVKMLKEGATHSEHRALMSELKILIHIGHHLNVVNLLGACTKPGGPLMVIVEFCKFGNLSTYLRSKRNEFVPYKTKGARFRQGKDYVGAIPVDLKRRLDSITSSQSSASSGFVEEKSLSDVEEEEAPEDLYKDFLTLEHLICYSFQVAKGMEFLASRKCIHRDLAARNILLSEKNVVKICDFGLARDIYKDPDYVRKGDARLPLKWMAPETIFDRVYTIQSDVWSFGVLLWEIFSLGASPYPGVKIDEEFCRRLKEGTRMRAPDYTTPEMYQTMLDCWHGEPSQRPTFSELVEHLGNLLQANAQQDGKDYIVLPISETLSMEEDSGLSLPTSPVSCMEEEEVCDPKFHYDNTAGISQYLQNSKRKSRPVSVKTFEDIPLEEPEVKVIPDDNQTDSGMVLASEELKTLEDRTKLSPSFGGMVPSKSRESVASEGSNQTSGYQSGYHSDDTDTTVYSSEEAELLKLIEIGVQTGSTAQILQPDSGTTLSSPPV
EGFR, sequence (P00533 25-1210): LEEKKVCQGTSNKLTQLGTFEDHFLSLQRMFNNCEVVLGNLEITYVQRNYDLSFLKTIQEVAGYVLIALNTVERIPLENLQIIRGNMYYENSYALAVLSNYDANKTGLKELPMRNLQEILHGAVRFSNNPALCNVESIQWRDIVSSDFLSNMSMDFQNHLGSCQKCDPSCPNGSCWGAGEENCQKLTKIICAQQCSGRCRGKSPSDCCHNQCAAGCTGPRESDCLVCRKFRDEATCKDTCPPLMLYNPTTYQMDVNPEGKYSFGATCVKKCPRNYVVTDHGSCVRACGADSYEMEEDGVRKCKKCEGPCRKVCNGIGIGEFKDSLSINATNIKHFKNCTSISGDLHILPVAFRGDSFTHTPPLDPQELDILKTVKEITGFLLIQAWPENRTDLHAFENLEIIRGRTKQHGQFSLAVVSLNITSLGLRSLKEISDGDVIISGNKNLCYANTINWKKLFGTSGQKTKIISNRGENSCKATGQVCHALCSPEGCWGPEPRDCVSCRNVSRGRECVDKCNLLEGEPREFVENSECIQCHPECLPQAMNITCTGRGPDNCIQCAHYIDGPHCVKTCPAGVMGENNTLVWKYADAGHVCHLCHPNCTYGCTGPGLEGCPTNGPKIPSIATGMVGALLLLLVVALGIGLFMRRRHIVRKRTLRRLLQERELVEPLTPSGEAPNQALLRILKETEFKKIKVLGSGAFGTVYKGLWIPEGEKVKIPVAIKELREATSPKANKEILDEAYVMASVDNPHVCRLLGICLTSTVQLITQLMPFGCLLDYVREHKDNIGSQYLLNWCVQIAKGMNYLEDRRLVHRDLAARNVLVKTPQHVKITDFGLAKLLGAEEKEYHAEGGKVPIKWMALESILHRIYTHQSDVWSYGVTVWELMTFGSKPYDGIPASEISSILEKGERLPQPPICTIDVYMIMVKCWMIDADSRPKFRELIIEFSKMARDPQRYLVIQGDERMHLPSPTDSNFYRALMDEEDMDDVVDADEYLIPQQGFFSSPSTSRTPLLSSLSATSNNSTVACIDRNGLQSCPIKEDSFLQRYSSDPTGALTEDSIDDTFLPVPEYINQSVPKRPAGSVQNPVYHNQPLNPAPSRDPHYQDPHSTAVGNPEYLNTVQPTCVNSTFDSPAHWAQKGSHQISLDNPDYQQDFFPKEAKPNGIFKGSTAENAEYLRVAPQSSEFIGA
FGFR2, sequence (P21802 22-821): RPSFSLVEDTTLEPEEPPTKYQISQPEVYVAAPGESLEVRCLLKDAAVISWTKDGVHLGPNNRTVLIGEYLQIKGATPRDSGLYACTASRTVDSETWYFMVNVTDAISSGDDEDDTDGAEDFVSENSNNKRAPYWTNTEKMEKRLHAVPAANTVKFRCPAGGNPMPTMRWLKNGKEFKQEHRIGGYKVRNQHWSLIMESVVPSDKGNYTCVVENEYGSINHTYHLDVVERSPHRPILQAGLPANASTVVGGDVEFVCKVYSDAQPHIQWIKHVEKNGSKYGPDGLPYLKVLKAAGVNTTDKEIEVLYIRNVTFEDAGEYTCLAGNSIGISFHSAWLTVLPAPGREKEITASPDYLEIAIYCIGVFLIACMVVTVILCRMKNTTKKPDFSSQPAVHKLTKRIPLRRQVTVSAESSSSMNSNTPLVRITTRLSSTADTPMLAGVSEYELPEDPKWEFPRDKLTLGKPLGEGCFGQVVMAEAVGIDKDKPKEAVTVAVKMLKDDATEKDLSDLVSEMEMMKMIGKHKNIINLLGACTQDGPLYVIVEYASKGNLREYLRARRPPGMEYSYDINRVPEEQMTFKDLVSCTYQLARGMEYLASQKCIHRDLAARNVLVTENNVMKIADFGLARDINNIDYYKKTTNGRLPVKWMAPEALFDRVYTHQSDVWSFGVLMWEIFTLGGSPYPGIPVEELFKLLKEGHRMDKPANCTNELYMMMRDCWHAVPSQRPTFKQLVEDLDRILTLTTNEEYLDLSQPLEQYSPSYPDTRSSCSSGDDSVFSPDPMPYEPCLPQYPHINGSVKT

Compound	IC50 [1] [nM]	IC50 [2] [nM]	IC50 [3] [nM]	IC50 [4] [nM]	IC50 [5] [nM]	IC50 (VEGFR-2 (KDR)) [nM]	IC50 (FGFR2) [nM]	IC50 (FGFR4) [nM]	IC50 (EGFR) [nM]	IC50 (C-MET) [nM]
COc1cc2nccc(Oc3c(F)cc(NC(=O)N(C)C(C)C)c(Cl)c3F)c2cc1C(N)=O [III-02]	> 5000	> 1000	> 10000	> 10000	> 10000	> 10	> 100	> 100	> 100	> 100
CCC(C)NC(=O)Nc1cc(F)c(Oc2ccnc3cc(OC)c(C(N)=O)cc23)c(F)c1Cl (centres unmarked) [III-03]	> 5000	> 1000	> 10000	> 10000	> 10000	> 10	> 100	> 100	> 100	> 100
COc1cc2nccc(Oc3c(F)cc(NC(=O)NC(C)(C)C)c(Cl)c3F)c2cc1C(N)=O [III-04]	> 5000	> 1000	> 10000	> 10000	> 10000	> 10	> 100	> 100	> 100	> 100
COc1cc2nccc(Oc3c(F)cc(NC(=O)NCC(F)F)c(Cl)c3F)c2cc1C(N)=O [III-05]	> 5000	> 1000	> 10000	> 10000	> 10000	> 10	> 100	> 100	> 100	> 100
COc1cc2nccc(Oc3c(F)cc(NC(=O)NCCO)c(Cl)c3F)c2cc1C(N)=O [III-06]	> 5000	> 1000	> 10000	> 10000	> 10000	> 10	> 100	> 100	> 100	> 100
COc1cc2nccc(Oc3c(F)cc(NC(=O)N[C@@H](C)CO)c(Cl)c3F)c2cc1C(N)=O [III-07]	> 5000	> 1000	> 10000	> 10000	> 10000	> 10	> 100	> 100	> 100	> 100
COc1cc2nccc(Oc3c(F)cc(NC(=O)N[C@H](C)CO)c(Cl)c3F)c2cc1C(N)=O [III-08]	> 5000	> 1000	> 10000	> 10000	> 10000	> 10	> 100	> 100	> 100	> 100
COc1cc2nccc(Oc3c(F)cc(NC(=O)NC[C@H](C)O)c(Cl)c3F)c2cc1C(N)=O [III-09]	> 5000	> 1000	> 10000	> 10000	> 10000	> 10	> 100	> 100	> 100	> 100
COc1cc2nccc(Oc3c(F)cc(NC(=O)NC[C@@H](C)O)c(Cl)c3F)c2cc1C(N)=O [III-10]	> 5000	> 1000	> 10000	> 10000	> 10000	> 10	> 100	> 100	> 100	> 100
COc1cc2nccc(Oc3c(F)cc(NC(=O)NC(C)(C)CO)c(Cl)c3F)c2cc1C(N)=O [III-11]	> 5000	> 1000	> 10000	> 10000	> 10000	> 10	> 100	> 100	> 100	> 100
COc1cc2nccc(Oc3c(F)cc(NC(=O)NCC(C)(C)O)c(Cl)c3F)c2cc1C(N)=O [III-12]	> 5000	> 1000	> 10000	> 10000	> 10000	> 10	> 100	> 100	> 100	> 100

From patent US12071408B2, “Multi-targeted tyrosine kinase inhibitors effective in antitumor uses” (Shanghai AB PharmaTech Ltd., priority 2021, dated 2024)
